In patent US10961247B2, “Pyrazolopyrimidine derivatives as kinase inhibitor” (Daewoong Pharmaceutical Co., Ltd., priority 2016, dated 2021):

What was measured:
[1] = molecular target: Recombinant purified human BTK (Homo sapiens (Human), UniProt Q06187); assay: BTK enzyme inhibitory activity, ADP Glo kinase assay (Promega V9071); format: biochemical; details: for inhibition at 0.1 µM: 100 nM compound; for IC50: ATP 10 uM, 1 hour 30° C.
Protocol: (§1) JAK3 and BTK kinase inhibitory activities were measured for the compounds prepared in the above Examples through in vitro analysis on the ADP Glow (Glo) platform.
(§2) Specifically, the inhibitory activities of JAK3 and BTK kinase were measured using a JAK3 kinase assay kit (Promega, V9441) and a BTK kinase assay kit (Promega, V9071) which were purchased from Promega. Recombinant purified human JAK3 and BTK were diluted with 1×kinase reaction buffer (JAK3: 40 mM Tris-Cl, pH 7.5, 20 mM MgCl2, 0.1 mg/mL BSA and 50 uM DTT/BTK: 40 mM Tris-Cl, pH 7.5, 20 mM MgCl2, 0.1 mg/mL BSA, 2 mM MnCl2 and 50 uM DTT) and added to a 96 well plate (JAK3: final concentration of 4 ng per reaction/BTK: final concentration of 8 ng per reaction). The compounds were treated so as to be finally a 1% DMSO aqueous solution, and a substrate cocktail containing ATP (JAK3: final concentration of 5 uM/BTK: final concentration of 10 uM) and 0.2 μg/μL of Poly(Glu4, Tyr1) peptide (JAK3 and BTK final concentration) in the total […] reactants was added to a 96-well plate to initiate enzymatic reaction. After incubation (30° C.) for 1 hour, equivalent volume ([…] per reaction) of ADP Glo was added and incubated (30° C.) for 40 minutes at room temperature. Then, a kinase detection reagent ([…] per reaction) was added and incubated (30° C.) for 30 minutes at room temperature. The kinase activity was measured by chemiluminescence according to the instructions of ADP Glo kinase assay kit, and the inhibitory activity of the compounds according to the present invention was calculated. For the analysis of the results of each compound, Microsoft Excel was used, and IC50 values were calculated by SigmaPlot software.

[2] = molecular target: Recombinant purified human JAK3 (Homo sapiens (Human), UniProt P52333); assay: JAK3 enzyme inhibitory activity, ADP Glo kinase assay (Promega V9441); format: biochemical; details: ATP 5 uM, 1 hour 30° C.
Protocol: as §1, §2

Sequence of Recombinant purified human JAK3 (P52333 whole entry): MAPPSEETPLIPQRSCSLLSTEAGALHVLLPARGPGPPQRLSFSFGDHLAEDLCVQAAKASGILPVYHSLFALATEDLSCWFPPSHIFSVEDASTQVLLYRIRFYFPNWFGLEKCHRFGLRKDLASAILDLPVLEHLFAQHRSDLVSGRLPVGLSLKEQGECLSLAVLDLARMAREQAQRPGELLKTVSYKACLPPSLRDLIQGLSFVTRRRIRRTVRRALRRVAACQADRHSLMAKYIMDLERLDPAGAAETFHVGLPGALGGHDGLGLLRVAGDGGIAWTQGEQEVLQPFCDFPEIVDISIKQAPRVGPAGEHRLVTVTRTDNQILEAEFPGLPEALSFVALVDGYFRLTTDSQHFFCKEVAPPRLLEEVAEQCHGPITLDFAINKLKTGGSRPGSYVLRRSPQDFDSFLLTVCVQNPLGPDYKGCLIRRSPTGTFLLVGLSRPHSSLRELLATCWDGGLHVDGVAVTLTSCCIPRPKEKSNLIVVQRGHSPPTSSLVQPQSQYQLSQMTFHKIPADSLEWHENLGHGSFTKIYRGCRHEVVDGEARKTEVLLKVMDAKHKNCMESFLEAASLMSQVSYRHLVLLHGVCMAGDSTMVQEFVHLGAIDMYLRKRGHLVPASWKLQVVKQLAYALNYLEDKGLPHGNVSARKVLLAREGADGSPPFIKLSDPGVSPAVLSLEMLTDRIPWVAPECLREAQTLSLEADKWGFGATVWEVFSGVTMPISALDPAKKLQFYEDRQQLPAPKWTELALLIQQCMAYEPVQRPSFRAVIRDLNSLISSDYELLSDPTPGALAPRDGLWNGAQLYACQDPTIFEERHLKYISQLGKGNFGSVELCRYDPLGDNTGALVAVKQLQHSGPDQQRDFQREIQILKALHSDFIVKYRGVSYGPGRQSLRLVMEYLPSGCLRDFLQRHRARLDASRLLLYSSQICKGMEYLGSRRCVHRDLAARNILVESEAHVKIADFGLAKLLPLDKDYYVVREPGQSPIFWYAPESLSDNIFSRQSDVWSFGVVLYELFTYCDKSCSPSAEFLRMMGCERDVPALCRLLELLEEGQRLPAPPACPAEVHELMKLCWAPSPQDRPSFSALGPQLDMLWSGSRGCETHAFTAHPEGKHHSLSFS
Sequence of Recombinant purified human BTK (Q06187 whole entry): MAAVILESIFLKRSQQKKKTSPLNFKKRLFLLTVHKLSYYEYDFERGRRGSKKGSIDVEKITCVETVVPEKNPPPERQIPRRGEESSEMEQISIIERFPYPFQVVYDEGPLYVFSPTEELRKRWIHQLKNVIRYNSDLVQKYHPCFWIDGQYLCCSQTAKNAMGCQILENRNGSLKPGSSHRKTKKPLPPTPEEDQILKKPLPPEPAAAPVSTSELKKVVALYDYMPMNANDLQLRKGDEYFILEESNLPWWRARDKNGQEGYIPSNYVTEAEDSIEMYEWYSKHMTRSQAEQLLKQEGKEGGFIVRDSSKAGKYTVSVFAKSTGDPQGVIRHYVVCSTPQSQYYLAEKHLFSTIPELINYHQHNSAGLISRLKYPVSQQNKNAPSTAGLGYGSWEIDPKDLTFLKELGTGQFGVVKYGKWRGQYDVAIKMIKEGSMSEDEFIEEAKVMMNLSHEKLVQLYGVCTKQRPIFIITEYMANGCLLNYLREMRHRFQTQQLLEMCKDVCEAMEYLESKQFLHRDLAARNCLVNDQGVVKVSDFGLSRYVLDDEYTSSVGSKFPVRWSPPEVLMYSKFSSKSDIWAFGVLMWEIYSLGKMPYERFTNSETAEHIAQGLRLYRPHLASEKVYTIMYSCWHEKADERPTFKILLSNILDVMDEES

SMILES | inhibition at 0.1 µM [1] | IC50 [2] | IC50 [1]
C=CC(=O)N1CC[C@@H](C)[C@@H](N(C)c2nc(Nc3ccc(N4CCN(C)CC4)cc3)nc3[nH]ccc23)C1 [Example 27, 1-((3R,4R)-4-methyl-3-(methyl(2-(4-(4-methylpiperazin-1-yl)phenylamino)-7H-pyrrolo[2,3-d]pyrimidin-4-yl)amino)piperidin-1-yl)prop-2-en-1-one] | 48% |  | 
C[C@@H]1CCN(C(=O)CC#N)C[C@@H]1N(C)c1nc(Nc2ccc(N3CCN(C)CC3)cc2)nc2[nH]ccc12 [Example 28, 3-((3R,4R)-4-methyl-3-(methyl(2-(4-(4-methylpiperazin-1-yl)phenylamino)-7H-pyrrolo[2,3-d]pyrimidin-4-yl)amino)piperidin-1-yl)-3-oxopropanenitrile] | 3.3% |  | 
C=CC(=O)NC1CCCC(Nc2nc(Nc3ccc(N4CCN(C)CC4)cc3)nc3[nH]ccc23)C1 (stereo not shown) [Example 29, N-(3-(2-(4-(4-methylpiperazin-1-yl)phenylamino)-7H-pyrrolo[2,3-d]pyrimidin-4-ylamino)cyclohexyl)acrylamide] | 47.1% |  | 
C=CC(=O)N1CCC[C@@H](Nc2nc(Nc3cnn(CC)c3)nc3[nH]nc(Cl)c23)C1 [Example 46, (R)-1-(3-(3-chloro-6-(1-ethyl-1H-pyrazol-4-ylamino)-1H-pyrazolo[3,4-d]pyrimidin-4-ylamino)piperidin-1-yl)prop-2-en-1-one] |  | 0.6 nM | 2 nM
CC#CC(=O)N1CCC[C@@H](Nc2nc(Nc3ccc(N4CCN(C)CC4)cc3)nc3[nH]cc(Cl)c23)C1 [Example 143, (R)-1-(3-((5-chloro-2-((4-(4-methylpiperazin-1-yl)phenyl)amino)-7H-pyrrolo[2,3-d]pyrimidin-4-yl)amino)piperidin-1-yl)but-2-yn-1-one] |  | 19.3 nM | 165 nM

Continued, values first:

inhibition at 0.1 µM [1] | IC50 [2] | IC50 [1] | SMILES
 | 3.7 nM | 7.8 nM | C=CC(=O)N1CC[C@@H](C)[C@@H](Nc2nc(Nc3cnn(CC)c3)nc3[nH]ccc23)C1 [Example 107, 1-((3R,4R)-3-((2-((1-ethyl-1H-pyrazol-4-yl)amino)-7H-pyrrolo[2,3-d]pyrimidin-4-yl)amino)-4-methylpiperidin-1-yl)prop-2-en-1-one]
 | 0.3 nM | 2 nM | C=CC(=O)N1CCC[C@@H](Sc2nc(Nc3cnn(CC)c3)nc3[nH]cc(Cl)c23)C1 [Example 109, (R)-1-(3-((5-chloro-2-((1-ethyl-1H-pyrazol-4-yl)amino)-7H-pyrrolo[2,3-d]pyrimidin-4-yl)thio)piperidin-1-yl)prop-2-en-1-one]
 | 9 nM | 1.1 nM | C=CC(=O)N1CCC[C@@H](Nc2nc(Nc3cnoc3)nc3[nH]nc(SC)c23)C1 [Example 130, (R)-1-(3-((6-(isoxazol-4-ylamino)-3-(methylthio)-1H-pyrazolo[3,4-d]pyrimidin-4-yl)amino)piperidin-1-yl)prop-2-en-1-one]
